Patent US11053204B2, “Pyrimidinyloxy benzene derivatives as herbicides” (FMC Corporation, priority 2015, dated 2021)

Columns and labels:
Format in all cases: in vivo
[1] = system: kochia (Kochia scoparia); assay: Test A preemergence, visual injury rating; conditions: 0 to 100 scale (0 no effect, 100 complete control)
Procedure, shortened: (§1)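 Injury scores run from 0, no effect, to 100, complete control, judged by eye against untreated plants roughly 10 days after treatment. Chemicals carried a surfactant in a non-phytotoxic solvent and went onto loam–sand soil preemergence or onto one- to two-leaf seedlings postemergence.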

[2] = system: barnyardgrass (Echinochloa crus-galli); assay: Test A preemergence, visual injury rating; conditions: 0 to 100 scale (0 no effect, 100 complete control)
Procedure, shortened: as §1

[3] = system: Italian ryegrass (Lolium multiflorum); assay: Test A preemergence, visual injury rating; conditions: 0 to 100 scale (0 no effect, 100 complete control)
Procedure, shortened: as §1

[4] = system: pigweed (Amaranthus retroflexus); assay: Test A preemergence, visual injury rating; conditions: 0 to 100 scale (0 no effect, 100 complete control)
Procedure, shortened: as §1

[5] = system: giant foxtail (Setaria faberii); assay: Test A preemergence, visual injury rating; conditions: 0 to 100 scale (0 no effect, 100 complete control)
Procedure, shortened: as §1

[6] = system: ragweed (common ragweed, Ambrosia elatior); assay: Test A preemergence, visual injury rating; conditions: 0 to 100 scale (0 no effect, 100 complete control)
Procedure, shortened: as §1

[7] = system: barnyardgrass (Echinochloa crus-galli); assay: Test B flooded paddy test, plant response rating; conditions: 250 g ai/ha; Flood; scale of 0 to 100 where 0 is no effect and 100 is complete control; 13 to 15 days
Description: (§2) At time of treatment, test pots were flooded to 3 cm above the soil surface, treated by application of test compounds directly to the paddy water, and then maintained at that water depth for the duration of the test. Treated plants and controls were maintained in a greenhouse for 13 to 15 days, after which time all species were compared to controls and visually evaluated. […] A dash (-) response means no test result.

[8] = system: sedge, umbrella (small-flower umbrella sedge, Cyperus difformis); assay: Test B flooded paddy test, plant response rating; conditions: 250 g ai/ha; Flood; scale of 0 to 100 where 0 is no effect and 100 is complete control; 13 to 15 days
Description: as §2

[9] = system: ducksalad (Heteranthera limosa); assay: Test B flooded paddy test, plant response rating; conditions: 250 g ai/ha; Flood; scale of 0 to 100 where 0 is no effect and 100 is complete control; 13 to 15 days
Description: as §2

[10] = system: rice (Oryza sativa); assay: Test B flooded paddy test, plant response rating; conditions: 250 g ai/ha; Flood; scale of 0 to 100 where 0 is no effect and 100 is complete control; 13 to 15 days
Description: as §2

[11] = system: kochia (Kochia scoparia); assay: Test A postemergence, visual injury rating; conditions: 0 is no effect, 100 is complete control
Description: (§3) Seeds of plant species selected from barnyardgrass (Echinochloa crus-galli), kochia (Kochia scoparia), ragweed (common ragweed, Ambrosia elatior), Italian ryegrass (Lolium multiflorum), large (Lg) crabgrass (Digitaria sanguinalis), giant foxtail (Setaria faberii), morningglory (Ipomoea spp.), pigweed (Amaranthus retroflexus), velvetleaf (Abutilon theophrasti), wheat (Triticum aestivum), and corn (Zea mays) were planted into a blend of loam soil and sand and treated preemergence with a directed soil spray using test chemicals formulated in a non-phytotoxic solvent mixture which included a surfactant.
(§4) At the same time, plants selected from these crop and weed species and also blackgrass (Alopecurus myosuroides), and galium (catchweed bedstraw, Galium aparine) were planted in pots containing the same blend of loam soil and sand and treated with postemergence applications of test chemicals formulated in the same manner. Plants ranged in height from 2 to 10 cm and were in the one- to two-leaf stage for the postemergence treatment. Treated plants and untreated controls were maintained in a greenhouse for approximately 10 days, after which time all treated plants were compared to untreated controls and visually evaluated for injury. Plant response ratings, summarized in Table A, are based on a 0 to 100 scale where 0 is no effect and 100 is complete control. A dash (-) response means no test result.

[12] = system: barnyardgrass (Echinochloa crus-galli); assay: Test A postemergence, visual injury rating; conditions: 0 is no effect, 100 is complete control
Description: as §3, §4

[13] = system: wheat (Triticum aestivum); assay: Test A postemergence, visual injury rating; conditions: 0 is no effect, 100 is complete control
Description: as §3, §4

[14] = system: Italian ryegrass (Lolium multiflorum); assay: Test A postemergence, visual injury rating; conditions: 0 is no effect, 100 is complete control
Description: as §3, §4

[15] = system: pigweed (Amaranthus retroflexus); assay: Test A postemergence, visual injury rating; conditions: 0 is no effect, 100 is complete control
Description: as §3, §4

[16] = system: corn (Zea mays); assay: Test A postemergence, visual injury rating; conditions: 0 is no effect, 100 is complete control
Description: as §3, §4

[17] = system: giant foxtail (Setaria faberii); assay: Test A postemergence, visual injury rating; conditions: 0 is no effect, 100 is complete control
Description: as §3, §4

[18] = system: ragweed (common ragweed, Ambrosia elatior); assay: Test A postemergence, visual injury rating; conditions: 0 is no effect, 100 is complete control
Description: as §3, §4

[19] = system: blackgrass (Alopecurus myosuroides); assay: Test A postemergence, visual injury rating; conditions: 0 is no effect, 100 is complete control
Description: as §3, §4

[20] = system: galium (catchweed bedstraw, Galium aparine); assay: Test A postemergence, visual injury rating; conditions: 0 is no effect, 100 is complete control
Description: as §3, §4

Row | SMILES | Kochia plant response rating ([1]; 125 g ai/ha) | Kochia plant response rating ([1]; 500 g ai/ha) | Barnyardgrass plant response rating ([2]; 125 g ai/ha) | Barnyardgrass plant response rating ([2]; 500 g ai/ha) | Ryegrass, Italian plant response rating ([3]; 125 g ai/ha) | Ryegrass, Italian plant response rating ([3]; 500 g ai/ha) | Pigweed plant response rating ([4]; 125 g ai/ha) | Pigweed plant response rating ([4]; 500 g ai/ha) | Foxtail, Giant plant response rating ([5]; 125 g ai/ha) | Foxtail, Giant plant response rating ([5]; 500 g ai/ha) | Ragweed plant response rating ([6]; 125 g ai/ha) | Ragweed plant response rating ([6]; 500 g ai/ha) | Plant response rating, Barnyardgrass [7] | Plant response rating, Sedge, Umbrella [8] | Plant response rating, Ducksalad [9] | Plant response rating, Rice [10] | Kochia plant response rating (0 to 100 scale) ([11]; 125 g ai/ha) | Kochia plant response rating (0 to 100 scale) ([11]; 500 g ai/ha) | Barnyardgrass plant response rating (0 to 100 scale) ([12]; 125 g ai/ha) | Barnyardgrass plant response rating (0 to 100 scale) ([12]; 500 g ai/ha) | also measured
1 | O=C(OCC1CCC1)c1c(Br)cccc1Oc1ncc(Cl)cn1 [Compound 8] | 0 | 0 | 30 | 100 | 0 | 30 | 10 | 60 | 100 | 100 | 0 | 0 | 0 | 70 | 0 | 0 | 40 | 80 | 10 | 40 | Wheat plant response rating (0 to 100 scale) ([13]; 125 g ai/ha): 0; Wheat plant response rating (0 to 100 scale) ([13]; 500 g ai/ha): 0; Ryegrass, Italian plant response rating (0 to 100 scale) ([14]; 125 g ai/ha): 0; Ryegrass, Italian plant response rating (0 to 100 scale) ([14]; 500 g ai/ha): 30; Pigweed plant response rating (0 to 100 scale) ([15]; 125 g ai/ha): 50; Pigweed plant response rating (0 to 100 scale) ([15]; 500 g ai/ha): 90; Corn plant response rating (0 to 100 scale) ([16]; 125 g ai/ha): 0; Corn plant response rating (0 to 100 scale) ([16]; 500 g ai/ha): 20; Foxtail, Giant plant response rating (0 to 100 scale) ([17]; 125 g ai/ha): 30; Foxtail, Giant plant response rating (0 to 100 scale) ([17]; 500 g ai/ha): 60; Ragweed plant response rating (0 to 100 scale) ([18]; 125 g ai/ha): 10; Ragweed plant response rating (0 to 100 scale) ([18]; 500 g ai/ha): 40; Blackgrass plant response rating (0 to 100 scale) ([19]; 125 g ai/ha): 0; Blackgrass plant response rating (0 to 100 scale) ([19]; 500 g ai/ha): 20; Galium plant response rating (0 to 100 scale) ([20]; 125 g ai/ha): 60; Galium plant response rating (0 to 100 scale) ([20]; 500 g ai/ha): 90
2 | O=C(OCC1CC1(F)F)c1c(Br)cccc1Oc1ncc(Cl)cn1 (stereo not drawn) [Compound 10] | 90 | 100 | 40 | 100 | 10 | 30 | 100 | 100 | 100 | 100 | 0 | 0 | 0 | 80 | 80 | 0 | 90 | 100 | 20 | 100 | Wheat plant response rating (0 to 100 scale) ([13]; 125 g ai/ha): 0; Wheat plant response rating (0 to 100 scale) ([13]; 500 g ai/ha): 40; Ryegrass, Italian plant response rating (0 to 100 scale) ([14]; 125 g ai/ha): 10; Ryegrass, Italian plant response rating (0 to 100 scale) ([14]; 500 g ai/ha): 60; Pigweed plant response rating (0 to 100 scale) ([15]; 125 g ai/ha): 90; Pigweed plant response rating (0 to 100 scale) ([15]; 500 g ai/ha): 100; Corn plant response rating (0 to 100 scale) ([16]; 125 g ai/ha): 10; Corn plant response rating (0 to 100 scale) ([16]; 500 g ai/ha): 60; Foxtail, Giant plant response rating (0 to 100 scale) ([17]; 125 g ai/ha): 30; Foxtail, Giant plant response rating (0 to 100 scale) ([17]; 500 g ai/ha): 100; Ragweed plant response rating (0 to 100 scale) ([18]; 125 g ai/ha): 10; Ragweed plant response rating (0 to 100 scale) ([18]; 500 g ai/ha): 50; Blackgrass plant response rating (0 to 100 scale) ([19]; 125 g ai/ha): 20; Blackgrass plant response rating (0 to 100 scale) ([19]; 500 g ai/ha): 90; Galium plant response rating (0 to 100 scale) ([20]; 125 g ai/ha): 100; Galium plant response rating (0 to 100 scale) ([20]; 500 g ai/ha): 100
